Data published in PubChem BioAssay AID330 (DTP/NCI, 2004).
“And” between values parts separate entries of the source, which are not always exact repeats. Equal entries are not always repeated. Toxic doses and inconclusive results are not listed.

Test system: P388 leukemia ip, CD2F1 mice, survival T/C
Experiment: NCI In Vivo Anticancer Drug Screen. Data for tumor model P388 Leukemia (intraperitoneal) in CD2F1 (CDF1) mice
Settings: endpoint: median survival time, higher = longer survival
How it was run: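 Mice carrying the transplanted tumor received test compound or vehicle. Survival was recorded in each group, and the value is the treated-group measurement divided by that of the vehicle-treated control group.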

[1] = dose: 50.0 mg/kg/injection, schedule: Q01DX009 (ip), vehicle: saline with Tween-80
[2] = dose: 100.0 mg/kg/injection, schedule: Q01DX009 (ip), vehicle: saline with Tween-80
[3] = dose: 200.0 mg/kg/injection, schedule: Q01DX009 (ip), vehicle: saline with Tween-80

Nc1ccc([N+](=O)[O-])cc1
T/C (dose: 12.5 mg/kg/injection, schedule: Q01DX009 (ip), vehicle: distilled water + Tween-80): 102 % of control
T/C (dose: 25.0 mg/kg/injection, schedule: Q01DX009 (ip), vehicle: distilled water + Tween-80): 100 % of control
T/C (dose: 50.0 mg/kg/injection, schedule: Q01DX009 (ip), vehicle: distilled water + Tween-80): 103 % of control
T/C (dose: 100.0 mg/kg/injection, schedule: Q01DX009 (ip), vehicle: distilled water + Tween-80): 103 % of control
T/C (dose: 200.0 mg/kg/injection, schedule: Q01DX009 (ip), vehicle: distilled water + Tween-80): 102 % of control

CCCCCCCCCCCCCOC(=O)c1ccc(O)cc1
T/C [1]: 98 % of control
T/C [2]: 94 % of control
T/C [3]: 88 % of control

COc1ccc(CCC#N)cc1OC
T/C (dose: 25.0 mg/kg/injection, schedule: Q01DX009 (ip), vehicle: other): 104 % of control
T/C (dose: 50.0 mg/kg/injection, schedule: Q01DX009 (ip), vehicle: other): 105 % of control
T/C (dose: 100.0 mg/kg/injection, schedule: Q01DX009 (ip), vehicle: other): 100 % of control
T/C (dose: 200.0 mg/kg/injection, schedule: Q01DX009 (ip), vehicle: other): 110 % of control

COC1=CC(=O)C(C(c2ccc(OC)cc2)N2CCOCC2)=CC1=O (centres undefined)
T/C (dose: 12.5 mg/kg/injection, schedule: Q01DX005 (ip), vehicle: saline with Tween-80): 109 % of control
T/C (dose: 25.0 mg/kg/injection, schedule: Q01DX005 (ip), vehicle: saline with Tween-80): 109 % of control
T/C (dose: 50.0 mg/kg/injection, schedule: Q01DX005 (ip), vehicle: saline with Tween-80): 101 % of control and 109 % of control

O=C1C=C(N(CCCl)CCCl)C(=O)C=C1N(CCCl)CCCl
T/C (dose: 50.0 mg/kg/injection, schedule: Q04DX003 (ip), vehicle: Klucel (hydroxypropylcellulose) (HPC)): 101 % of control
T/C (dose: 200.0 mg/kg/injection, schedule: Q04DX003 (ip), vehicle: Klucel (hydroxypropylcellulose) (HPC)): 178 % of control

COc1ccc(C(C)(OC)c2cc(C(C)(C)C)c(O)c(C(C)(C)C)c2)cc1 (centres undefined)
T/C (dose: 50.0 mg/kg/injection, schedule: Q01DX005 (ip), vehicle: saline + Tween-80 + alcohol): 104 % of control
T/C (dose: 100.0 mg/kg/injection, schedule: Q01DX005 (ip), vehicle: saline + Tween-80 + alcohol): 101 % of control
T/C (dose: 200.0 mg/kg/injection, schedule: Q01DX005 (ip), vehicle: saline + Tween-80 + alcohol): 102 % of control

CC(N)(CCS(=O)CP(=O)(O)O)C(=O)O (centres undefined)
T/C (dose: 60.0 mg/kg/injection, schedule: Q01DX005 (ip), vehicle: saline): 100 % of control
T/C (dose: 120.0 mg/kg/injection, schedule: Q01DX005 (ip), vehicle: saline): 94 % of control

CCOc1ccc(OCC)c(NC(=O)c2ccccc2)c1
T/C (dose: 100.0 mg/kg/injection, schedule: Q04DX003 (ip), vehicle: saline with Tween-80): 100 % of control
T/C (dose: 200.0 mg/kg/injection, schedule: Q04DX003 (ip), vehicle: saline with Tween-80): 95 % of control
T/C (dose: 400.0 mg/kg/injection, schedule: Q04DX003 (ip), vehicle: saline with Tween-80): 95 % of control

C=CCc1ccccc1/C=N/NS(=O)(=O)c1ccc(C)cc1
T/C (dose: 100.0 mg/kg/injection, schedule: Q04DX002 (ip), vehicle: saline with Tween-80): 100 % of control
T/C (dose: 200.0 mg/kg/injection, schedule: Q04DX002 (ip), vehicle: saline with Tween-80): 98 % of control
T/C (dose: 400.0 mg/kg/injection, schedule: Q04DX002 (ip), vehicle: saline with Tween-80): 97 % of control

CCN(CC)Cc1cc(N=Nc2ccc(N(C)C)cc2)ccc1O
T/C (dose: 100.0 mg/kg/injection, schedule: Q01DX001 (ip), vehicle: saline with Tween-80): 88 % of control
T/C (dose: 200.0 mg/kg/injection, schedule: Q01DX001 (ip), vehicle: saline with Tween-80): 88 % of control

CC(Cl)C(=O)c1ccc(N)cc1 (centres undefined)
T/C (dose: 50.0 mg/kg/injection, schedule: Q01DX009 (ip), vehicle: Klucel (hydroxypropylcellulose) (HPC)): 99 % of control
T/C (dose: 100.0 mg/kg/injection, schedule: Q01DX009 (ip), vehicle: Klucel (hydroxypropylcellulose) (HPC)): 99 % of control
T/C (dose: 200.0 mg/kg/injection, schedule: Q01DX009 (ip), vehicle: Klucel (hydroxypropylcellulose) (HPC)): 99 % of control

[Cl][Ru]([Cl])([Cl])([Cl])([Cl])[Cl]
T/C (dose: 6.25 mg/kg/injection, schedule: Q04DX003 (ip), vehicle: saline): 117 % of control and 123 % of control
T/C (dose: 12.5 mg/kg/injection, schedule: Q04DX003 (ip), vehicle: saline): 117 % of control and 123 % of control
T/C (dose: 25.0 mg/kg/injection, schedule: Q04DX003 (ip), vehicle: saline): 117 % of control
T/C (dose: 50.0 mg/kg/injection, schedule: Q04DX003 (ip), vehicle: saline): 123 % of control
T/C (dose: 100.0 mg/kg/injection, schedule: Q04DX003 (ip), vehicle: saline): 111 % of control

NS(=O)(=O)c1cc([N+](=O)[O-])ccc1Cl
T/C [1]: 100 % of control
T/C [2]: 100 % of control
T/C [3]: 94 % of control

CC(=O)OC1CCC2(C)C(C1)CC(OC(C)=O)C1C2CC(OC(C)=O)C2(C)C(C(C)CC(=O)C(=O)c3ccccc3)CCC12 (centres undefined)
T/C [1]: 103 % of control
T/C [2]: 94 % of control
T/C [3]: 98 % of control
